Results taken from patent publication US12065485B2, “Treatment of staphylococcal disorders” (priority 2013, dated 2024).
Ends that are not written are not given here. Peptide text beside a SMILES is read from it. * marks the point of attachment. For = O=C*

Columns and labels:
[1] = tested on: MCs (FSMCs, BMCMCs, MC/9 cells); type: cell-based, mouse; conditions: in vitro; for effect on MC degranulation induced by δ-toxin: pre-treatment before δ-toxin stimulation
Protocol: Preparations of BMCMCs and fetal skin-derived mast cells (FSMCs) were previously described in Yamada, et al., J Invest Dermatol 121, 1425-1432 (2003). The purity of MCs was confirmed by surface expression of CD45 and CD117 (eBioscience).
Degranulation of MCs was assessed by β-hexosaminidase assay as previously described in Yamada, et al., J Invest Dermatol 121, 1425-1432, (2003). Briefly, MCs (2×10^6 m^−1) were preloaded with or without anti-DNP IgE (0.3 μg ml^−1) in RPMI with IL-3 for 15 hours. The cells were resuspended in Tyrode's buffer (Sigma) at 2×10^4 cells per 100 μl for FSMCs or 1×10^5 cells per 100 μl for BMCMCs and MC/9 cells, aliquoted in triplicate into a 96-well U-bottom plate and incubated with EGTA (1 mM, Sigma), LY294002 (100 μM, Sigma) and WRW4 (Trp-Arg-Trp-Trp-Trp-Trp-CONH2 (SEQ ID NO: […], American peptide) and Cyclosporine H (10 μM, Alexis Biochemicals) for 30 min, and then stimulated with DNP-HSA (30 ng ml^−1) TNP-HSA (30 nM) for 30 min, followed by exposure to Ionomycin (1 μM, Sigma) δ-toxin (indicated concentrations), PSMαs (indicated concentrations) or FPR2 ligands for 15 min. Results of various stimuli are given as a relative percentage, where freeze and thaw of total cell culture represents 100%.

FSMCs = type: cell-based, mouse
Protocol: In brief, FSMCs (2×10^6 m^−1) were preloaded with or without anti-DNP-IgE (0.3 g ml^−1) in RPMI with IL-3 for 15 hours. Cells were washed and loaded with Fluo-4AM (5 μM, Life Technologies) for 30 minutes. Cells were washed again and further incubated in Tyrode's buffer with or without EGTA (1 mM) for 30 minutes. DNP-HSA (30 ng ml^−1), Ionomycin (1 μM) or δ-toxin (30 μg ml^−1) were used to induce calcium flux in these cells.

MC/9 cells = test: Viability of MCs after stimulation with synthetic PSMs (LDH release); conditions: synthetic peptides
Protocol: (a) % LDH released from MC/9 cells stimulated by medium alone (Ctrl) and indicated concentrations (μg ml^−1) of PSMs for 15 or 60 minutes. […] Data represent means±s.d. of triplicate cultures. Data are representative of three independent experiments.
Because δ-toxin is highly related to PSMα2 and PSMα3, the viability of MCs after stimulation with synthetic PSMα2, PSMα3, or δ-toxin, was assessed.

[2] = tested on: primary mouse macrophages and keratinocytes; test: Cell toxicity by LDH assay in primary mouse macrophages and keratinocytes
Protocol: Cell toxicity of δ-toxin. BMCMCs, BMMφ (bone marrow derived macrophages), bone marrow neutrophils and primary keratinocytes isolated from mice were stimulated with PSMα (10 μg ml−1) or δ-toxin (10 or 100 μg ml−1) for indicated times. Cell toxicity was measured by LDH assay. Data represent means±s.d. of triplicate cultures. NS; not significant, ***P<0.001, one-way ANOVA with Tukey's post-hoc test for multiple comparisons. Data are representative of two independent experiments.

MC degranulation in vivo = test: Passive cutaneous anaphylaxis (PCA) assay, Evans blue leakage in ear skin; conditions: mice pretreated with WRW4, then S. aureus culture supernatant intradermally
Protocol: To assess whether δ-toxin induces MC degranulation in vivo, synthetic δ-toxin was injected into the skin of mouse ears and MC degranulation was monitored by the vascular leakage of Evan's blue dye into the extravascular space using the passive cutaneous anaphylaxis (PCA) assay.
Four to six weeks later, the mice were subjected to experimental PCA or epicutaneous S. aureus sensitization. […] PCA assay was performed as described, with minor modifications. […] After inoculation, 0.1 ml of 5 mg ml −1 Evans blue dye was injected intravenously. Extravasation of Evans blue dye was monitored for 30 minutes, and 4 mm of punched-out biopsies were incubated at 63° C. overnight in 200 μl formamide. Quantitative analysis of extracts was determined by measuring the absorbance at 600 nm.

[3] = tested on: P3 promoter (RNAIII / delta-toxin expression); test: USA300-P3-Luc reporter screen for inhibition of RNAIII induction (P3 promoter activation by AIP); type: cell-based, Staphylococcus aureus; conditions: Staphylococcus aureus; 40 μM compound, 2 hours at 37° C., luminescence; relative to positive control (USA300 inhibitory AIP supernatant); read-out: % Inhibition
Protocol: Staphylococcus aureus pulse-field gel electrophoresis (PFGE) type USA300 transformed with a plasmid containing the P3 promoter followed by the luciferase gene (USA300-P3-Luc) was grown in tryptic soy broth (TSB) to […] (5×10^8 CFU/mL), as determined by optical density at 600 nm, from overnight cultured bacteria and harvested via centrifugation (4,000×g, 4° C., 5 minutes). Supernatant was removed and the bacterial pellet was washed twice with an equal volume of PBS. Bacteria were suspended in PBS at 5×10^8 CFU/mL, as confirmed by plating serial dilutions onto TSB. 2×10^6 CFU washed USA300-P3-Luc was incubated with wt USA300 8-hour filtered supernatant containing stimulatory auto-inducing peptide (AIP) at a final dilution of 1:10 and 40 μM each compound in a total of 40 μL/well of TSB on a 384-well plate. The S. aureus two-component agr system induces delta-toxin expression via expression of AIP at stationary growth phase and was used to stimulate activation of the P3 promoter. Alternatively, AIP produced by a different S. aureus strain, PFGE type USA400, acts to inhibit delta-toxin expression in USA300. As a positive control, samples were incubated with USA400 8-hour filtered supernatant containing inhibitory AIP at a final dilution of 1:10 instead of test compound. Samples were incubated at 37° C. for 2 hours, then analyzed for luminescence and optical density at 600 nm. Percent Inhibition was determined by the following formula: Percent inhibition=100×(LumNo Inhibitor−Lumcompound)/(LumNo Inhibitor.−LumPositive control). Inhibitory compounds suitable for use in methods of inhibiting skin inflammation according to the disclosure were identified (Table 2) based on at least a 40% inhibition relative to the positive control, minimal reduction in growth as determined by optical density at 600 nm, and relatively low promiscuity (<10%) in relation to other high-throughput assays performed using these compounds.

Molecule: O=C(O)CN(CCOCCOCCN(CC(=O)O)CC(=O)O)CC(=O)O [EGTA, ethylene glycol tetraacetic acid]
- effect on MC degranulation induced by δ-toxin [1]: blocked MC degranulation
- effect on δ-toxin-triggered Ca2+ influx (FSMCs; EGTA 1 mM): abrogated

Molecule: pertussis toxin
- effect on MC degranulation induced by δ-toxin [1]: partially reduced

Molecule: CC[C@H](C)[C@H](NC(=O)[C@H](Cc1c[nH]c2ccccc12)NC(=O)[C@H](CCCCN)NC(=O)[C@@H](NC(=O)[C@H](CC(C)C)NC(=O)[C@H](CC(=O)O)NC(=O)CNC(=O)[C@@H](NC(=O)[C@@H](NC(=O)[C@H](CO)NC(=O)[C@@H](NC(=O)[C@@H](NC(=O)[C@H](CC(=O)O)NC(=O)[C@H](CCC(N)=O)NC(=O)[C@H](C)NC(=O)[C@@H](N)CCSC)[C@@H](C)CC)[C@@H](C)CC)[C@@H](C)O)[C@@H](C)CC)C(C)C)C(=O)N[C@H](C(=O)N[C@@H](CC(=O)O)C(=O)N[C@H](C(=O)N[C@H](C(=O)N[C@@H](CC(N)=O)C(=O)N[C@@H](CCCCN)C(=O)N[C@@H](Cc1ccccc1)C(=O)N[C@H](C(=O)N[C@@H](CCCCN)C(=O)N[C@@H](CCCCN)C(=O)O)[C@@H](C)O)C(C)C)[C@@H](C)O)[C@@H](C)CC [δ-toxin]
- cell viability / cell death in MCs (MC/9 cells): did not induce detectable cell death

Molecule: CC[C@H](C)[C@H](NC(=O)CNC(=O)[C@H](CCSC)NC=O)C(=O)N[C@H](C(=O)N[C@@H](C)C(=O)NCC(=O)N[C@H](C(=O)N[C@H](C(=O)N[C@@H](CCCCN)C(=O)N[C@@H](Cc1ccccc1)C(=O)N[C@H](C(=O)N[C@@H](CCCCN)C(=O)NCC(=O)N[C@@H](CC(C)C)C(=O)N[C@H](C(=O)N[C@@H](CCC(=O)O)C(=O)N[C@@H](CCCCN)C(=O)N[C@@H](Cc1ccccc1)C(=O)N[C@H](C(=O)NCC(=O)N[C@@H](CCCCN)C(=O)O)[C@@H](C)O)[C@@H](C)CC)[C@@H](C)CC)[C@@H](C)CC)[C@@H](C)CC)[C@@H](C)CC [PSMα3]
- cell viability / cell death in MCs (MC/9 cells): induced robust loss of cell viability

Molecule: CC[C@H](C)[C@H](NC(=O)CNC(=O)[C@H](CCSC)NC=O)C(=O)N[C@H](C(=O)N[C@@H](C)C(=O)NCC(=O)N[C@H](C(=O)N[C@H](C(=O)N[C@@H](CCCCN)C(=O)N[C@H](C(=O)N[C@H](C(=O)N[C@@H](CCCCN)C(=O)N[C@@H](CO)C(=O)N[C@@H](CC(C)C)C(=O)N[C@H](C(=O)N[C@@H](CCC(=O)O)C(=O)N[C@@H](CCC(N)=O)C(=O)N[C@@H](Cc1ccccc1)C(=O)N[C@H](C(=O)NCC(=O)N[C@@H](CCCCN)C(=O)O)[C@@H](C)O)[C@@H](C)CC)[C@@H](C)CC)C(C)C)[C@@H](C)CC)[C@@H](C)CC)[C@@H](C)CC [PSMα2] (For-MGIIAGIIKVIKSLIEQFTGK-OH)
- cell viability / cell death in MCs (MC/9 cells): induced robust loss of cell viability
- cell death [2]: triggered robust cell death

Molecule: LESIFRSLLFRVM [MMK1, human FPR2 ligand]
- induction of MC degranulation [1]: did not induce mouse MC degranulation

Molecule: Trp-Arg-Trp-Trp-Trp-Trp-CONH2 (WRWWWW-NH2) [WRW4]
- effect on MC degranulation induced by δ-toxin [1]: inhibited MC degranulation
- effect on MC degranulation induced by δ-toxin in vivo (MC degranulation in vivo): inhibited MC degranulation

Molecule: C[C@H](CCC(=O)O)C[C@H](C)C[C@H](C)C(=O)/C=C(\O)[C@H](C)C[C@H](C)C/C=C/[C@@H](C)[C@@H](O)[C@@H](C)[C@@H](O)C[C@@H]1CC[C@@](C)([C@H]2CC[C@@](C)([C@@H](C)O)O2)O1 [ionomycin]
- induction of Ca2+ influx (FSMCs): induced rapid Ca 2+ influx

Molecule: CC(C)c1ccc2c(c1)c(SC(C)(C)C)c(CC(C)(C)C(=O)O)n2Cc1ccc(Cl)cc1 [1H-Indole-2-propanoic acid, 1-[(4-chlorophenyl)methyl]-3-[(1,1-dimethylethyl)thio]-Alpha,Alpha-dimethyl-5-(1-methylethyl)-]
- inhibition at 40 µM [3]: 86.3%

Molecule: CCCCC[C@H](O)/C=C/C=C\C=C\C=C\[C@@H](O)[C@@H](O)CCCC(=O)O [Lipoxin A4]
- induction of MC degranulation [1]: did not induce mouse MC degranulation
